The values below come from PubChem BioAssay (NCI).

Among the test systems are UACC-62 melanoma; OVCAR-8 ovarian; NCI-H522 lung; COLO 205 colon; MOLT-4 leukemia; SN12C renal; NCI-H226 lung; KM12 colon; NCI-H460 lung; HCT-116 colon; HT29 colon; MDA-MB-435; RXF 393 renal; HCT-15 colon; UACC-257 melanoma; TK-10 renal; SR leukemia; MCF7 breast; SNB-75 CNS.
What all share (assay): growth of human tumour cells (NCI), 48 h

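Results reflect a 48-hour exposure of cells in 96-well plates to compound at five concentrations. At the TGI there is no net growth.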

`Cc1ccc(-n2cnc3c(N/N=C4\SCC(=O)N4c4ccccc4)ncnc32)cc1`: the TGI in the assay with UACC-62 melanoma is 17.2 µM; in the assay on OVCAR-8 ovarian it was 11.8 µM; with NCI-H522 lung it was 7.28 µM; with COLO 205 colon, 17.1 µM; with MOLT-4 leukemia, 5.48 µM; in the assay with SN12C renal it was 11.7 µM. For the same compound, the TGI stood at 20.4 µM with NCI-H226 lung; 7.88 µM in the assay with KM12 colon; 13.2 µM with NCI-H460 lung; 13 µM in the assay on HCT-116 colon; 15 µM in the assay on HT29 colon; 13.3 µM in the assay on MDA-MB-435. In addition, the TGI in the assay on RXF 393 renal is 5.8 µM; in the assay with HCT-15 colon, 11.5 µM; in the assay on UACC-257 melanoma, 18.3 µM; in the assay on TK-10 renal, 14.3 µM.
In the case of `CN1CN(c2ccccc2)C2(CCN(CCCC(=O)c3cccs3)CC2)C1=O`, the TGI in the assay on UACC-62 melanoma was more than 100 µM; in the assay on OVCAR-8 ovarian it was more than 100 µM; with NCI-H522 lung it was more than 100 µM; in the assay with COLO 205 colon, 47.7 µM; with MOLT-4 leukemia, more than 100 µM; in the assay on SN12C renal, more than 100 µM. Moreover, the TGI with NCI-H226 lung was more than 100 µM; in the assay on SR leukemia, more than 100 µM; in the assay on KM12 colon, more than 100 µM; with MCF7 breast, 72.6 µM; in the assay on HCT-116 colon it was more than 100 µM; in the assay on HT29 colon it was 73.6 µM. In addition, the TGI in the assay with RXF 393 renal is more than 100 µM; in the assay on HCT-15 colon, more than 100 µM; in the assay on SNB-75 CNS, more than 100 µM; in the assay with UACC-257 melanoma, 90.6 µM; in the assay on TK-10 renal it was 87.6 µM.
`O=C1C=CC(=O)c2c(O)c(N[C@@H](Cc3ccccc3)C(=O)OCc3ccccc3)c(Cl)c(O)c21`: the TGI in the assay on UACC-62 melanoma was more than 10 µM; in the assay with OVCAR-8 ovarian it was more than 10 µM; in the assay on NCI-H522 lung, more than 10 µM; with COLO 205 colon, 6.71 µM; with SN12C renal it was more than 10 µM; in the assay on NCI-H226 lung, more than 10 µM. Moreover, the TGI in the assay on KM12 colon is more than 10 µM; in the assay with NCI-H460 lung, more than 10 µM; in the assay with HCT-116 colon, 4.42 µM; in the assay on HT29 colon, more than 10 µM; in the assay on MDA-MB-435 it was more than 10 µM; in the assay with RXF 393 renal it was more than 10 µM. Besides, the TGI in the assay with HCT-15 colon, with SNB-75 CNS, with UACC-257 melanoma and in the assay on TK-10 renal was more than 10 µM in each case.
Regarding `Cc1c2cnccc2nc2[nH]c3ccncc3c12`, the TGI in the assay on UACC-62 melanoma was 41.5 µM; with OVCAR-8 ovarian, more than 100 µM; in the assay with NCI-H522 lung it was 18.5 µM; in the assay on COLO 205 colon, more than 100 µM; in the assay with MOLT-4 leukemia it was more than 100 µM; in the assay with SN12C renal, more than 100 µM. Besides, the TGI is 11.5 µM in the assay with SR leukemia; 41.8 µM in the assay with KM12 colon; 6.06 µM in the assay on NCI-H460 lung; more than 100 µM with HT29 colon; 27.6 µM with MDA-MB-435; 28.8 µM with HCT-15 colon. Besides, the TGI was more than 100 µM in the assay on SNB-75 CNS, 94.9 µM in the assay with UACC-257 melanoma and 24.3 µM with TK-10 renal.
Regarding `CC(Oc1ccc(OCC2CCCCC2)cc1)C(=O)N(CCO)CCO` (configuration not stated), the TGI in the assay with UACC-62 melanoma, in the assay with OVCAR-8 ovarian, in the assay with NCI-H522 lung, in the assay on MOLT-4 leukemia, in the assay on SN12C renal and in the assay on NCI-H226 lung was more than 100 µM throughout. Moreover, the TGI in the assay with KM12 colon, in the assay on NCI-H460 lung, in the assay on HCT-116 colon, with HT29 colon, in the assay on RXF 393 renal and in the assay on HCT-15 colon was more than 100 µM in each case. The TGI in the assay with SNB-75 CNS, in the assay with UACC-257 melanoma and with TK-10 renal was more than 100 µM in each case.
Consider `O=C1C(=O)N(C2CCCCC2)C(=S)N1C1CCCCC1`, for which the TGI with UACC-62 melanoma, in the assay with OVCAR-8 ovarian, in the assay on NCI-H522 lung, in the assay with COLO 205 colon, with MOLT-4 leukemia and with SN12C renal was more than 100 µM throughout. Besides, the TGI in the assay on NCI-H226 lung, with SR leukemia, in the assay with KM12 colon, in the assay with NCI-H460 lung, in the assay on HCT-116 colon and with HT29 colon was more than 100 µM each time. Further, the TGI in the assay with MDA-MB-435, with RXF 393 renal, in the assay with HCT-15 colon, with SNB-75 CNS, in the assay with UACC-257 melanoma and with TK-10 renal was more than 100 µM each time.
With `CCOC(CCCN1CCC2(CC1)C(=O)N(C)CN2c1ccccc1)(OCC)c1ccc(F)cc1`, the TGI in the assay on UACC-62 melanoma is 34.3 µM; with OVCAR-8 ovarian it was 33.6 µM; in the assay with NCI-H522 lung, 34.2 µM; with COLO 205 colon, 6.88 µM; in the assay on MOLT-4 leukemia, 22.6 µM; with SN12C renal, 21.9 µM. Besides, the TGI with NCI-H226 lung is 33.6 µM; with KM12 colon it was 29.5 µM; in the assay on MCF7 breast, 13.8 µM; in the assay on HCT-116 colon, 14.2 µM; in the assay on HT29 colon, 14 µM; in the assay on RXF 393 renal, 34.6 µM. For the same compound, the TGI in the assay with HCT-15 colon was 22.7 µM; with SNB-75 CNS it was 43.8 µM; with UACC-257 melanoma, 18.5 µM; with TK-10 renal, 22.2 µM.
With `CN=C(N)N/N=C(\C)c1ccc2oc3ccc(/C(C)=N/NC(N)=NC)cc3c2c1`, the TGI in the assay on UACC-62 melanoma is more than 23.8 µM; in the assay on OVCAR-8 ovarian, more than 100 µM; in the assay on COLO 205 colon it was more than 100 µM; in the assay with MOLT-4 leukemia it was 2.42 µM; in the assay with SN12C renal, more than 24.5 µM; with NCI-H226 lung, 4.73 µM. For the same compound, the TGI in the assay with SR leukemia was 4.75 µM; in the assay on KM12 colon it was more than 100 µM; with NCI-H460 lung, more than 100 µM; with HCT-116 colon, more than 100 µM; with MDA-MB-435 it was more than 100 µM; in the assay on RXF 393 renal, more than 50.7 µM. Moreover, the TGI was more than 100 µM with HCT-15 colon, more than 68.1 µM with UACC-257 melanoma and more than 100 µM in the assay on TK-10 renal.
`CO[C@@H](c1ccccc1)[C@H](O)[C@](O)(c1ccccc1)P(=O)(OC)OC`: the TGI in the assay on UACC-62 melanoma, in the assay with OVCAR-8 ovarian, in the assay with NCI-H522 lung, in the assay with COLO 205 colon, in the assay on MOLT-4 leukemia and with SN12C renal was more than 100 µM each time. Moreover, the TGI with NCI-H226 lung, with SR leukemia, with KM12 colon, in the assay with NCI-H460 lung, in the assay on HCT-116 colon and in the assay with HT29 colon was more than 100 µM throughout. Moreover, the TGI in the assay on MDA-MB-435, with RXF 393 renal, with HCT-15 colon, in the assay with SNB-75 CNS, in the assay on UACC-257 melanoma and in the assay with TK-10 renal was more than 100 µM each time.
Turning to `CCOC(=O)C(O)(NC(=O)Nc1ccc(F)cc1)C(F)(F)F` (configuration not stated), the TGI with OVCAR-8 ovarian, with COLO 205 colon, in the assay on MOLT-4 leukemia, with SN12C renal, with SR leukemia and in the assay on HCT-116 colon was more than 100 µM in each case. Also, the TGI with HT29 colon, with MDA-MB-435, in the assay on RXF 393 renal, with HCT-15 colon, with SNB-75 CNS and with UACC-257 melanoma was more than 100 µM in each case. Besides, the TGI in the assay with TK-10 renal was more than 100 µM.
Take `O=Cc1cc2c(o1)C(=O)c1ccccc1C2=O`: the TGI in the assay with UACC-62 melanoma was found to be 3.29 µM; with OVCAR-8 ovarian, 2.72 µM; in the assay on COLO 205 colon, 2.76 µM; in the assay with MOLT-4 leukemia it was 4.56 µM; with SN12C renal it was 0.779 µM; with NCI-H226 lung it was 2.27 µM. The TGI in the assay with SR leukemia was 3.68 µM; with KM12 colon it was 4.54 µM; in the assay on MCF7 breast, 0.581 µM; in the assay with NCI-H460 lung it was 2.39 µM; with HCT-116 colon, 1.18 µM; with HT29 colon, 2.12 µM. Further, the TGI was 2.99 µM in the assay on RXF 393 renal, 0.858 µM in the assay on SNB-75 CNS, 1.5 µM in the assay with UACC-257 melanoma and 8.52 µM in the assay on TK-10 renal.
For `CC(C)(C)OC(=O)CN1CCNCCN(CC(=O)OC(C)(C)C)CC1`, the TGI with UACC-62 melanoma, in the assay with OVCAR-8 ovarian, in the assay on NCI-H522 lung, in the assay with COLO 205 colon, in the assay on MOLT-4 leukemia and in the assay with SN12C renal was more than 100 µM throughout. Besides, the TGI in the assay with NCI-H226 lung, in the assay with SR leukemia, in the assay with KM12 colon, in the assay with MCF7 breast, in the assay with NCI-H460 lung and in the assay on HCT-116 colon was more than 100 µM throughout. For the same compound, the TGI in the assay with HT29 colon was more than 100 µM; in the assay with HCT-15 colon, more than 100 µM; in the assay on SNB-75 CNS, 68.7 µM; in the assay on UACC-257 melanoma, more than 100 µM; in the assay on TK-10 renal it was more than 100 µM.
In the case of `O=[N+]([O-])c1nccn1CC1OC(n2ccnc2[N+](=O)[O-])C(O)C(O)C1O` (configuration not stated), the TGI in the assay with UACC-62 melanoma, in the assay with OVCAR-8 ovarian, in the assay on COLO 205 colon, with MOLT-4 leukemia, with NCI-H226 lung and in the assay on SR leukemia was more than 100 µM in each case. In addition, the TGI with KM12 colon, in the assay with MCF7 breast, with NCI-H460 lung, with HCT-116 colon, in the assay on HT29 colon and in the assay on RXF 393 renal was more than 100 µM each time. Besides, the TGI with SNB-75 CNS, with UACC-257 melanoma and in the assay on TK-10 renal was more than 100 µM in each case.
